Legend:
Serotonin 5HT2C = target: T1, Serotonin 5HT2C (Homo sapiens, UniProt P28335); assay: Radioligand binding, Serotonin 5HT2C ([3H]Mesulergine)
T1 construct: host or cells: CHO-K1 cells
T1 sequence (P28335 33-458): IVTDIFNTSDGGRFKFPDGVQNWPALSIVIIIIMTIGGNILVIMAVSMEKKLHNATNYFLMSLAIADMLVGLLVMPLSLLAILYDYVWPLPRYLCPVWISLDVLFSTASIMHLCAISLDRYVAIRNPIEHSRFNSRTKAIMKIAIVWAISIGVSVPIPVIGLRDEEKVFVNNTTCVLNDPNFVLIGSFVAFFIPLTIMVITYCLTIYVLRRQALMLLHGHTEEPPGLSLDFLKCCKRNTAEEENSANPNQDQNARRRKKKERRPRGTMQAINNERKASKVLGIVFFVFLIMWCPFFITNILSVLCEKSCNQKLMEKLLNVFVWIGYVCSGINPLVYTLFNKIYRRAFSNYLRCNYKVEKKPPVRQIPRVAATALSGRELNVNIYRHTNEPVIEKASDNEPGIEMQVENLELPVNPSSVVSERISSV
Method: (§1) The assays utilized human neuroreceptors and were performed under the experimental parameters set forth in Table 2 using standard techniques.
(§2) For Table 3, IC50 values were determined by non-linear, least squares regression analysis using Data Analysis Toolbox™ (MDL Information Systems, San Leandro, Calif., USA). Inhibition constants (KI) were calculated using the equation of Cheng and Prusoff (Cheng, Y., et al. Biochem. Pharmacol. 22:3099-3108, 1973) using the observed IC50 of the tested compound, the concentration of radioligand employed in the assay, and the values for the KD of the ligand. The Hill coefficient (nH), defining the slope of the competitive binding curve, was calculated using the Data Analysis Toolbox™. Biochemical assay results are presented as the percent inhibition of specific binding or activity unless indicated otherwise. The experiments summarized in Table 3 utilized human dopamine D1, D2 s, D21, D3, D4.2, D4.4, serotonin 5HT1A, 5HT2A, 5HT2C, 5HT6, 5HT7, dopamine transporter (DAT), serotonin transporter (SERT) and the norepinephrine transporter (NET), as indicated in Table 3.

Dopamine D2L = target: T2, Dopamine D2L (Homo sapiens, UniProt P14416); assay: Radioligand binding, Dopamine D2L ([3H]Spiperone)
T2 construct: host or cells: CHO cells
Method: as §1, §2

[1] = target: T3, Dopamine transporter (DAT) (Homo sapiens, UniProt Q01959); assay: Radioligand binding, Dopamine transporter (DAT) ([125I]RTI-55)
T3 construct: host or cells: CHO-K1 cells
Method: as §1, §2

Dopamine D4.4 = target: T4, Dopamine D4.4 (Homo sapiens, UniProt P21917); assay: Radioligand binding, Dopamine D4.4 ([3H]Spiperone)
T4 construct: host or cells: CHO-K1 cells
T4 sequence (P21917 1-419): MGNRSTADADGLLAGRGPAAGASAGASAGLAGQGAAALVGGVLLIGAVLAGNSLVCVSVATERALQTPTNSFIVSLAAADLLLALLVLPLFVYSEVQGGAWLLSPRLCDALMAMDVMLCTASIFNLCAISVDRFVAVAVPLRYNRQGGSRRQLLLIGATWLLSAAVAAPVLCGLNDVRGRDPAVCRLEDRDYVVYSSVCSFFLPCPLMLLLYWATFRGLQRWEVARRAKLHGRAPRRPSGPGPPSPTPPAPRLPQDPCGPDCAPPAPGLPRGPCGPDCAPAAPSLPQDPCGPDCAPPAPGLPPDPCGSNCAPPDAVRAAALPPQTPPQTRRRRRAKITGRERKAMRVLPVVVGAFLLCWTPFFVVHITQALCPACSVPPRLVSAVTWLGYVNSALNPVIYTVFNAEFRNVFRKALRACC
Method: as §1, §2

T3 sequence (Q01959 whole entry): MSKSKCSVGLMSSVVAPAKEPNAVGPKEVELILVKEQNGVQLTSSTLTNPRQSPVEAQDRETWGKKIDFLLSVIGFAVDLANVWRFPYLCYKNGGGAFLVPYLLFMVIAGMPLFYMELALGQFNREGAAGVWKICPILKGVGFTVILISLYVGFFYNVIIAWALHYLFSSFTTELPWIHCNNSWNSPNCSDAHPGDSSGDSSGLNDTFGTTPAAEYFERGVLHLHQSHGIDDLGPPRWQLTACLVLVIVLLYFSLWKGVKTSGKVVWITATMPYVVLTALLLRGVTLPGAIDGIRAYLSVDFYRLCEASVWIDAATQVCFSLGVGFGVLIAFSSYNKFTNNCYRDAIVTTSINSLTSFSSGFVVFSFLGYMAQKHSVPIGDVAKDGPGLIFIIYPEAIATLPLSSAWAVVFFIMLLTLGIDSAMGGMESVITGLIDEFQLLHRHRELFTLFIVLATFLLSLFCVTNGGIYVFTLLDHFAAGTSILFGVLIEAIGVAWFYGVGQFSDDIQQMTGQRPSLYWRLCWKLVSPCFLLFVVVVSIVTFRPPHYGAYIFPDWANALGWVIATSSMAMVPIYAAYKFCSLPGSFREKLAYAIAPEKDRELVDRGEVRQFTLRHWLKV
T2 sequence (P14416 whole entry): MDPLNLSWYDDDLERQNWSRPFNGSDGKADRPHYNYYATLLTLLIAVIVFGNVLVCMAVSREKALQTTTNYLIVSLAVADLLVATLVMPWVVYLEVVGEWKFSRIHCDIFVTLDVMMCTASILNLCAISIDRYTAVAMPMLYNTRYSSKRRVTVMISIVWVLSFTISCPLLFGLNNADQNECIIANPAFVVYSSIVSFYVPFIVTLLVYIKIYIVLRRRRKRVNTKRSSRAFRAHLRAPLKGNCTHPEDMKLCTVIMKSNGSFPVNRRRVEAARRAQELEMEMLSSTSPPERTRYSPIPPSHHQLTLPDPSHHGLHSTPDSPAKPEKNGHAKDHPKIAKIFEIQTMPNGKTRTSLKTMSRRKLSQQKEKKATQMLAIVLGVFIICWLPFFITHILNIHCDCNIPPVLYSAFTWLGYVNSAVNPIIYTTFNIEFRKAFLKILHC

## COC(=O)[C@@H](c1ccc(-c2ccccc2)cc1)[C@H]1C=CCCN1 [Compound 2]
Serotonin 5HT2C
  IC50: 13.4 µM
  Ki: 7.03 µM
Serotonin 5HT2C; Serotonin 5HT2C, 10 μM, read-out: Percentage Inhibition
  inhibition at 10 µM: 52%
Serotonin 5HT2C; Serotonin 5HT2C, 30 μM, read-out: Percentage Inhibition
  inhibition at 30 µM: 70%
Serotonin 5HT2C; Serotonin 5HT2C, Hill coefficient
  nH: 1.12
Dopamine D2L
  IC50: 88.2 µM
  Ki: 29.4 µM
Dopamine D2L; Dopamine D2l, 10 μM, read-out: Percentage Inhibition
  inhibition at 10 µM: 13%
Dopamine D2L; Dopamine D2l, 100 μM, read-out: Percentage Inhibition
  inhibition at 100 µM: 54%
Dopamine D2L; Dopamine D2l, Hill coefficient
  nH: 0.716
[1]
  IC50: 13.8 µM
  Ki: 11 µM
[1]; Dopamine transporter (DAT), 10 μM, read-out: Percentage Inhibition
  inhibition at 10 µM: 33%
[1]; Dopamine transporter (DAT), 100 μM, read-out: Percentage Inhibition
  inhibition at 100 µM: 74%
[1]; Dopamine transporter (DAT), Hill coefficient
  nH: 1.3
Dopamine D4.4
  IC50: 66.7 µM
  Ki: 18.5 µM
Dopamine D4.4; Dopamine D4.4, Hill coefficient
  nH: 1.01
Dopamine D4.4; Dopamine D4.4, concentration 100 (unit not given)
  Percentage Inhibition: 62%
